Patent publication US6667387B1, “HCV core peptides” (priority 1992, dated 2003)
Ends that are not written are not given here.

Key:
[1] = test system: antibodies in sera from HCV-seropositive donors; assay: ELISA with HCV antibody-positive sera (biotinylated peptides on streptavidin- or avidin-coated plates, unbiotinylated peptides coated directly); assay type: binding, human
Method in brief: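 Read-out is OD at 450 nm after HRP goat anti-human Ig and TMB development, following 1 h at 37° C. with seropositive or negative sera diluted 1:100 (or 20-fold). Antigen was either unbiotinylated peptide adsorbed on plastic (pH 9.6 carbonate, 2–5 or 3 μg/ml) or biotinylated peptide at 1 μg/ml captured on streptavidin-coated wells, with casein blocking.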

[2] = ELISA with seronegative / negative control sera (specificity); assay type: binding, human
Method in brief: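 Specificity readout is OD at 450 nm (HRP goat anti-human Ig, TMB/H2O2, sulfuric acid stop), with ≥0.250 counted positive. Seronegative donor sera (typically 1:100, 1 h, 37° C) were applied to casein-blocked wells coated with peptide directly or via streptavidin capture of biotinylated peptide.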

Sequence: ETWKKPDYEPPVVHGCPLPP
- optical density (450 nm) ([1]; Table 4G, serum 1, 20-fold dilution): 2.523
- optical density (450 nm) ([1]; Table 4G, serum 33, 20-fold dilution): 1.463
- optical density (450 nm) ([1]; Table 4G, serum 39, 20-fold dilution): 0.068
- optical density (450 nm) ([1]; Table 4G, serum 47, 20-fold dilution): 2.117
- optical density (450 nm) ([1]; Table 4G, serum 79, 20-fold dilution): 1.739
- optical density (450 nm) ([1]; Table 4G, serum 83, 20-fold dilution): 1.121
- optical density (450 nm) ([1]; Table 4G, serum 88, 20-fold dilution): 0.972
- optical density (450 nm) ([1]; Table 4G, serum 89, 20-fold dilution): 2.079
- optical density (450 nm) ([1]; Table 4G, serum 91, 20-fold dilution): 2.202
- optical density (450 nm) ([1]; Table 4G, serum 99, 20-fold dilution): 1.253
- optical density (450 nm) ([1]; Table 4G, serum 104, 20-fold dilution): 1.864
- optical density (450 nm) ([1]; Table 4G, serum 105, 20-fold dilution): 1.522
- optical density (450 nm) ([1]; Table 4G, serum 110, 20-fold dilution): 1.981
- optical density (450 nm) ([1]; Table 4G, serum 111, 20-fold dilution): 1.363
- optical density (450 nm) ([1]; Table 4G, serum 112, 20-fold dilution): 1.172
- optical density (450 nm) ([1]; Table 4G, serum 116, 20-fold dilution): 1.534
- optical density (450 nm) ([1]; Table 4G, serum 120, 20-fold dilution): 1.599
- optical density (450 nm) ([1]; Table 5, sample 8242 (positive), peptide concentration 0.01 micrograms per milliliter, listed as Unbiotinylated HCV peptide XVIII): 0.048
- optical density (450 nm) ([1]; Table 5, sample 8242 (positive), peptide concentration 0.03 micrograms per milliliter, listed as Unbiotinylated HCV peptide XVIII): 0.049
- optical density (450 nm) ([1]; Table 5, sample 8242 (positive), peptide concentration 0.1 micrograms per milliliter, listed as Unbiotinylated HCV peptide XVIII): 0.047
- optical density (450 nm) ([1]; Table 5, sample 8242 (positive), peptide concentration 0.3 micrograms per milliliter, listed as Unbiotinylated HCV peptide XVIII): 0.048
- optical density (450 nm) ([1]; Table 5, sample 8242 (positive), peptide concentration 1.0 micrograms per milliliter, listed as Unbiotinylated HCV peptide XVIII): 0.049
- optical density (450 nm) ([1]; Table 5, sample 8242 (positive), peptide concentration 3.0 micrograms per milliliter, listed as Unbiotinylated HCV peptide XVIII): 0.053
- optical density (450 nm) ([1]; Table 5, sample 8243 (positive), peptide concentration 0.01 micrograms per milliliter, listed as Unbiotinylated HCV peptide XVIII): 0.053
- optical density (450 nm) ([1]; Table 5, sample 8243 (positive), peptide concentration 0.03 micrograms per milliliter, listed as Unbiotinylated HCV peptide XVIII): 0.053
- optical density (450 nm) ([1]; Table 5, sample 8243 (positive), peptide concentration 0.1 micrograms per milliliter, listed as Unbiotinylated HCV peptide XVIII): 0.051
- optical density (450 nm) ([1]; Table 5, sample 8243 (positive), peptide concentration 0.3 micrograms per milliliter, listed as Unbiotinylated HCV peptide XVIII): 0.054
- optical density (450 nm) ([1]; Table 5, sample 8243 (positive), peptide concentration 1.0 micrograms per milliliter, listed as Unbiotinylated HCV peptide XVIII): 0.053
- optical density (450 nm) ([1]; Table 5, sample 8243 (positive), peptide concentration 3.0 micrograms per milliliter, listed as Unbiotinylated HCV peptide XVIII): 0.057
- optical density (450 nm) ([1]; Table 5, sample 8318 (positive), peptide concentration 0.01 micrograms per milliliter, listed as Unbiotinylated HCV peptide XVIII): 0.048
- optical density (450 nm) ([1]; Table 5, sample 8318 (positive), peptide concentration 0.03 micrograms per milliliter, listed as Unbiotinylated HCV peptide XVIII): 0.047
- optical density (450 nm) ([1]; Table 5, sample 8318 (positive), peptide concentration 0.1 micrograms per milliliter, listed as Unbiotinylated HCV peptide XVIII): 0.047
- optical density (450 nm) ([1]; Table 5, sample 8318 (positive), peptide concentration 0.3 micrograms per milliliter, listed as Unbiotinylated HCV peptide XVIII): 0.047
- optical density (450 nm) ([1]; Table 5, sample 8318 (positive), peptide concentration 1.0 micrograms per milliliter, listed as Unbiotinylated HCV peptide XVIII): 0.045
- optical density (450 nm) ([1]; Table 5, sample 8318 (positive), peptide concentration 3.0 micrograms per milliliter, listed as Unbiotinylated HCV peptide XVIII): 0.051
- optical density (450 nm) ([1]; Table 5, sample 8326 (positive), peptide concentration 0.01 micrograms per milliliter, listed as Unbiotinylated HCV peptide XVIII): 0.051
- optical density (450 nm) ([1]; Table 5, sample 8326 (positive), peptide concentration 0.03 micrograms per milliliter, listed as Unbiotinylated HCV peptide XVIII): 0.051
- optical density (450 nm) ([1]; Table 5, sample 8326 (positive), peptide concentration 0.1 micrograms per milliliter, listed as Unbiotinylated HCV peptide XVIII): 0.049
- optical density (450 nm) ([1]; Table 5, sample 8326 (positive), peptide concentration 0.3 micrograms per milliliter, listed as Unbiotinylated HCV peptide XVIII): 0.053
- optical density (450 nm) ([1]; Table 5, sample 8326 (positive), peptide concentration 1.0 micrograms per milliliter, listed as Unbiotinylated HCV peptide XVIII): 0.053
- optical density (450 nm) ([1]; Table 5, sample 8326 (positive), peptide concentration 3.0 micrograms per milliliter, listed as Unbiotinylated HCV peptide XVIII): 0.052
- optical density (450 nm) ([2]; Table 4G, negative serum): 0.001
- optical density (450 nm) ([2]; Table 5, sample 1747 (negative), peptide concentration 0.01 micrograms per milliliter, listed as Unbiotinylated HCV peptide XVIII): 0.047
- optical density (450 nm) ([2]; Table 5, sample 1747 (negative), peptide concentration 0.03 micrograms per milliliter, listed as Unbiotinylated HCV peptide XVIII): 0.044
- optical density (450 nm) ([2]; Table 5, sample 1747 (negative), peptide concentration 0.1 micrograms per milliliter, listed as Unbiotinylated HCV peptide XVIII): 0.045
- optical density (450 nm) ([2]; Table 5, sample 1747 (negative), peptide concentration 0.3 micrograms per milliliter, listed as Unbiotinylated HCV peptide XVIII): 0.046
- optical density (450 nm) ([2]; Table 5, sample 1747 (negative), peptide concentration 1.0 micrograms per milliliter, listed as Unbiotinylated HCV peptide XVIII): 0.045
- optical density (450 nm) ([2]; Table 5, sample 1747 (negative), peptide concentration 3.0 micrograms per milliliter, listed as Unbiotinylated HCV peptide XVIII): 0.048
- optical density (450 nm) ([2]; Table 5, sample 1781 (negative), peptide concentration 0.01 micrograms per milliliter, listed as Unbiotinylated HCV peptide XVIII): 0.053
- optical density (450 nm) ([2]; Table 5, sample 1781 (negative), peptide concentration 0.03 micrograms per milliliter): 0.051
- optical density (450 nm) ([2]; Table 5, sample 1781 (negative), peptide concentration 0.1 micrograms per milliliter, listed as Unbiotinylated HCV peptide XVIII): 0.051
- optical density (450 nm) ([2]; Table 5, sample 1781 (negative), peptide concentration 0.3 micrograms per milliliter, listed as Unbiotinylated HCV peptide XVIII): 0.051
- optical density (450 nm) ([2]; Table 5, sample 1781 (negative), peptide concentration 1.0 micrograms per milliliter, listed as Unbiotinylated HCV peptide XVIII): 0.054
- optical density (450 nm) ([2]; Table 5, sample 1781 (negative), peptide concentration 3.0 micrograms per milliliter, listed as Unbiotinylated HCV peptide XVIII): 0.055
